The target of this test is MGAT2 Human (Homo sapiens (Human), UniProt Q3SYC2). In words: MGAT2 Human IC50. Format: biochemical.
Chain of MGAT2 Human (Q3SYC2 whole entry): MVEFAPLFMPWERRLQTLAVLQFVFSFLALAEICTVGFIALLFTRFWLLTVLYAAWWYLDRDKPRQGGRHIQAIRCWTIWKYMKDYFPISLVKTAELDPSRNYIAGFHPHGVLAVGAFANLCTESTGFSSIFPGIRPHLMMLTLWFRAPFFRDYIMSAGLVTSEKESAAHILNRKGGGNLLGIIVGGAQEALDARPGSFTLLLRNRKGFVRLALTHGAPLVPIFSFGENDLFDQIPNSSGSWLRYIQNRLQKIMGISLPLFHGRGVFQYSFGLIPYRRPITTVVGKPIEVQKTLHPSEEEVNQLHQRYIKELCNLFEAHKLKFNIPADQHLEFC
By IC50 is commonly meant the concentration that gives 50% inhibition. High values mean weaker potency in that assay, low ones greater potency in that assay. Molecule `C[C@H](c1cccc(Cl)c1)N1CCc2ccc(S(=O)(=O)Nc3cc(C(C)(C)C)on3)cc2C1` [Example 1, (R)—N-(5-(tert-butyl)isoxazol-3-yl)-2-(1-(3-chlorophenyl)ethyl)-1,2,3,4-tetrahydroisoquinoline-7-sulfonamide] returned an IC50 of 9 nM.
Consider `C[C@H](c1cc(F)cc(F)c1F)N1CCc2ccc(S(=O)(=O)Nc3cc(C(C)(C)C)on3)cc2C1` [Example 2, (R)—N-(5-(tert-butyl)isoxazol-3-yl)-2-(1-(2,3,5-trifluorophenyl)ethyl)-1,2,3,4-tetrahydroisoquinoline-7-sulfonamide], for which half-maximal inhibition (IC50) was put at 6 nM.
The same measure for `C[C@H](c1ccccc1)N1CCc2ccc(S(=O)(=O)Nc3cc(C(C)(C)C)on3)cc2C1` [Example 3, (R)—N-(5-(tert-butyl)isoxazol-3-yl)-2-(1-phenylethyl)-1,2,3,4-tetrahydroisoquinoline-7-sulfonamide]: 9 nM; for `CCSc1ncc([C@@H](C)N2CCc3ccc(S(=O)(=O)Nc4cc(C(C)(C)C)on4)cc3C2)cn1` [Example 4, (R)—N-(5-(tert-butyl)isoxazol-3-yl)-2-(1-(2-(ethylthio)pyrimidin-5-yl)ethyl)-1,2,3,4-tetrahydroisoquinoline-7-sulfonamide]: 11 nM.
With `Cc1c(NS(=O)(=O)c2ccc3c(c2)CN([C@H](C)c2ccc(OCC(F)(F)F)nc2)CC3)noc1C(C)(C)C` [Example 5, (R)—N-(5-(tert-butyl)-4-methylisoxazol-3-yl)-2-(1-(6-(2,2,2-trifluoroethoxy)pyridin-3-yl)ethyl)-1,2,3,4-tetrahydroisoquinoline-7-sulfonamide], the IC50 came out at 4.5 nM.
Regarding `C[C@H](c1ccc(OCC(F)(F)F)nc1)N1CCc2ccc(S(=O)(=O)Nc3noc(-c4ccccc4)n3)cc2C1` [Example 6], half-maximal inhibition (IC50) was put at 9.2 nM.
For `CCc1noc(NS(=O)(=O)c2ccc3c(c2)CN([C@H](C)c2ccc(OCC(F)(F)F)nc2)CC3)n1` [Example 7], the IC50 worked out at 8.1 nM.
Molecule `CC(C)c1nc(NS(=O)(=O)c2ccc3c(c2)CN([C@H](C)c2ccc(OCC(F)(F)F)nc2)CC3)no1` [Example 8] displayed an IC50 of 13 nM.
Take `C[C@H](c1ccc(OCC(F)(F)F)nc1)N1CCc2ccc(S(=O)(=O)Nc3cc(C(C)(C)C)on3)cc2C1` [Example 9, (R)—N-(5-(tert-butyl)isoxazol-3-yl)-2-(1-(6-(2,2,2-trifluoroethoxy)pyridin-3-yl)ethyl)-1,2,3,4-tetrahydroisoquinoline-7-sulfonamide]: it took 11 nM to reach half-maximal inhibition (IC50).
`C[C@H](c1cnc(OCC(F)(F)F)nc1)N1CCc2ccc(S(=O)(=O)Nc3noc(C(C)(C)C)c3Br)cc2C1` [Example 10, (R)—N-(4-bromo-5-(tert-butyl)isoxazol-3-yl)-2-(1-(2-(2,2,2-trifluoroethoxy)pyrimidin-5-yl)ethyl)-1,2,3,4-tetrahydroisoquinoline-7-sulfonamide] yielded an IC50 of 17 nM. Compared with the last molecule, the IC50 is about 1.5-fold higher.
Molecule `C[C@H](c1cnc(OCC(F)(F)F)nc1)N1CCc2ccc(S(=O)(=O)Nc3noc(C(C)(C)C)c3-c3cccc(F)c3)cc2C1` [Example 11, (R)—N-(5-(tert-butyl)-4-(3-fluorophenyl)isoxazol-3-yl)-2-(1-(2-(2,2,2-trifluoroethoxy)pyrimidin-5-yl)ethyl)-1,2,3,4-tetrahydroisoquinoline-7-sulfonamide] registered an IC50 of 20 nM. The IC50 values of the last two molecules are within 1.5-fold of each other.
`C[C@H](c1cnc(OCC(F)(F)F)nc1)N1CCc2ccc(S(=O)(=O)Nc3cc(C(C)(C)C)on3)cc2C1` [Example 12, (R)—N-(5-(tert-butyl)isoxazol-3-yl)-2-(1-(2-(2,2,2-trifluoroethoxy)pyrimidin-5-yl)ethyl)-1,2,3,4-tetrahydroisoquinoline-7-sulfonamide] returned a concentration for half-maximal inhibition (IC50) of 14 nM.
Molecule `C[C@H](c1ccc(OCC(F)(F)F)nc1)N1CCc2ccc(S(=O)(=O)Nc3noc(C(C)(C)C)c3Cl)cc2C1` [Example 13, (R)—N-(5-(tert-butyl)-4-chloroisoxazol-3-yl)-2-(1-(6-(2,2,2-trifluoroethoxy)pyridin-3-yl)ethyl)-1,2,3,4-tetrahydroisoquinoline-7-sulfonamide] registered an IC50 of 16 nM.
On to `Cc1c(NS(=O)(=O)c2ccc3c(c2)CN([C@H](C)c2cnc(OCC(F)(F)F)cn2)CC3)noc1C(C)(C)C` [Example 14, (R)—N-(5-(tert-butyl)-4-methylisoxazol-3-yl)-2-(1-(5-(2,2,2-trifluoroethoxy)pyrazin-2-yl)ethyl)-1,2,3,4-tetrahydroisoquinoline-7-sulfonamide], for which the 50% inhibitory concentration (IC50) came to 3.1 nM.
Molecule `Cc1c(NS(=O)(=O)c2ccc3c(c2)CN(Cc2ccc(OCC(F)(F)F)nc2)CC3)noc1C(C)(C)C` [Example 15, N-(5-(tert-butyl)-4-methylisoxazol-3-yl)-2-((6-(2,2,2-trifluoroethoxy)pyridin-3-yl)methyl)-1,2,3,4-tetrahydroisoquinoline-7-sulfonamide] registered an IC50 of 11 nM.
The molecule `CC(C)(C)c1onc(NS(=O)(=O)c2ccc3c(c2)CN(Cc2ccc(OCC(F)(F)F)nc2)CC3)c1F` [Example 16, N-(5-(tert-butyl)-4-fluoroisoxazol-3-yl)-2-((6-(2,2,2-trifluoroethoxy)pyridin-3-yl)methyl)-1,2,3,4-tetrahydroisoquinoline-7-sulfonamide] gave an IC50 of 16 nM.
As to `Cc1onc(NS(=O)(=O)c2ccc3c(c2)CN([C@H](C)c2ccc(OCC(F)(F)F)nc2)CC3)c1-c1cnn(C)c1` [Example 17, (R)—N-(5-methyl-4-(1-methyl-1H-pyrazol-4-yl)isoxazol-3-yl)-2-(1-(6-(2,2,2-trifluoroethoxy)pyridin-3-yl)ethyl)-1,2,3,4-tetrahydroisoquinoline-7-sulfonamide], the half-maximal inhibitory concentration (IC50) was determined as 24 nM. This IC50 lies about 1.5-fold higher than the previous one.
On to `C[C@H](c1ccc(OCC(F)(F)F)nc1)N1CCc2ccc(S(=O)(=O)Nc3cc(C(C)(C)O)on3)cc2C1` [Example 18, (R)—N-(5-(2-hydroxypropan-2-yl)isoxazol-3-yl)-2-(1-(6-(2,2,2-trifluoroethoxy)pyridin-3-yl)ethyl)-1,2,3,4-tetrahydroisoquinoline-7-sulfonamide], for which the IC50 came to 23 nM. The IC50 values of the last two molecules are within 1.5-fold of each other.
The value for `C[C@H](c1ccc(OCC(F)(F)F)nc1)N1CCc2ccc(S(=O)(=O)Nc3cc(C(C)(C)F)on3)cc2C1` [Example 19, (R)—N-(5-(2-fluoropropan-2-yl)isoxazol-3-yl)-2-(1-(6-(2,2,2-trifluoroethoxy)pyridin-3-yl)ethyl)-1,2,3,4-tetrahydroisoquinoline-7-sulfonamide] was 18 nM; that for `Cc1c(NS(=O)(=O)c2ccc3c(c2)CN(Cc2cnc(SCC(F)(F)F)nc2)CC3)noc1C(C)(C)C` [Example 20, N-(5-(tert-butyl)-4-methylisoxazol-3-yl)-2-((2-((2,2,2-trifluoroethyl)thio)pyrimidin-5-yl)methyl)-1,2,3,4-tetrahydroisoquinoline-7-sulfonamide] was 5.8 nM; that for `C/C=C/c1c(NS(=O)(=O)c2ccc3c(c2)CN(Cc2cnc(OCC(F)(F)F)s2)CC3)noc1C(C)(C)C` [Example 21, (E)-N-(5-(tert-butyl)-4-(prop-1-en-1-yl)isoxazol-3-yl)-2-((2-(2,2,2-trifluoroethoxy)thiazol-5-yl)methyl)-1,2,3,4-tetrahydroisoquinoline-7-sulfonamide] was 3.9 nM.
For the molecule `C[C@H](c1ccc(OCC(F)F)nc1)N1CCc2ccc(S(=O)(=O)Nc3cc(C(C)(C)C)on3)cc2C1` [Example 22], the IC50 was determined as 6.4 nM.
With `C[C@H](c1ccc(OCC(F)F)nc1)N1CCc2ccc(S(=O)(=O)Nc3noc(C4CC4)n3)cc2C1` [Example 23, (R)-5-cyclopropyl-3-(2-(1-(6-(2,2-difluoroethoxy)pyridin-3-yl)ethyl)-1,2,3,4-tetrahydroisoquinoline-7-sulfonamido)-1,2,4-oxadiazol-2-ium 2,2,2-trifluoroacetate], the IC50 was 8.2 nM.
Turning to `C[C@H](c1cnc(OCC(F)F)cn1)N1CCc2ccc(S(=O)(=O)Nc3noc(C4CC4)n3)cc2C1` [Example 24, (R)-5-cyclopropyl-3-(2-(1-(5-(2,2-difluoroethoxy)pyrazin-2-yl)ethyl)-1,2,3,4-tetrahydroisoquinoline-7-sulfonamido)-1,2,4-oxadiazol-2-ium 2,2,2-trifluoroacetate], the IC50 was found to be 19.7 nM.
Molecule `Cc1c(NS(=O)(=O)c2ccc3c(c2)CN([C@H](C)c2cnc(OCC(F)F)cn2)CC3)noc1C(C)(C)C` [Example 25, 7-(N-(5-(tert-butyl)-4-methylisoxazol-3-yl)sulfamoyl)-2-((R)-1-(5-(2,2-difluoroethoxy)pyrazin-2-yl)ethyl)-1,2,3,4-tetrahydroisoquinolin-2-ium 2,2,2-trifluoroacetate] showed a concentration for half-maximal inhibition (IC50) of 4.6 nM.
Molecule `C[C@H](c1ccc(OCC2CC(F)(F)C2)nc1)N1CCc2ccc(S(=O)(=O)Nc3noc(C4CC4)n3)cc2C1` [Example 26, (R)-5-cyclopropyl-3-(2-(1-(6-((3,3-difluorocyclobutyl)methoxy)pyridin-3-yl)ethyl)-1,2,3,4-tetrahydroisoquinoline-7-sulfonamido)-1,2,4-oxadiazol-2-ium 2,2,2-trifluoroacetate] displayed a half-maximal inhibitory concentration (IC50) of 20 nM.
As for `Cc1c(NS(=O)(=O)c2ccc3c(c2)CN(C(=O)c2ccc(OCC(F)(F)F)nc2)CC3)noc1C(C)(C)C` [Example 27, N-(5-(tert-butyl)-4-methylisoxazol-3-yl)-2-(6-(2,2,2-trifluoroethoxy)nicotinoyl)-1,2,3,4-tetrahydroisoquinoline-7-sulfonamide], 41 nM corresponded to half-maximal inhibition (IC50).
Regarding `Cc1c(NS(=O)(=O)c2ccc3c(c2)CN([C@H](C)c2ccc(OCC4CC(F)(F)C4)nc2)CC3)noc1C(C)(C)C` [Example 28, 7-(N-(5-(tert-butyl)-4-methylisoxazol-3-yl)sulfamoyl)-2-((R)-1-(6-((3,3-difluorocyclobutyl)methoxy)pyridin-3-yl)ethyl)-1,2,3,4-tetrahydroisoquinolin-2-ium 2,2,2-trifluoroacetate], the half-maximal inhibitory concentration (IC50) came out at 8.5 nM. Against the preceding molecule, the IC50 is about 4.8-fold lower.
For the molecule `Cc1c(NS(=O)(=O)c2ccc3c(c2)CN([C@H](C)c2ccc(OCC(F)(F)F)cc2)CC3)noc1C(C)(C)C` [Example 29, 7-(N-(5-(tert-butyl)-4-methylisoxazol-3-yl)sulfamoyl)-2-((R)-1-(4-(2,2,2-trifluoroethoxy)phenyl)ethyl)-1,2,3,4-tetrahydroisoquinolin-2-ium 2,2,2-trifluoroacetate], the IC50 came to 9.5 nM. This IC50 and that of the molecule before are within 1.5-fold of each other.
